Source: patent US3996360A, “Piperazine compounds” (Knoll A.G. Chemische Fabriken, priority 1974, dated 1976)
Where two headings read alike, the source gives them in different places.

Key:
[1] = test system: disturbances of the heart-beat rhythm; test: Aconitine-induced disturbances of the heart rhythm, intravenous pretreatment; format: in vivo, rats; details: for ED25 / ED50: Rattus norvegicus; for Ventricular Flutter ED25: dose raising administered aconitine dose by 25 percent prior to ventricular flutter; for Ventricular Flutter ED50: dose raising administered aconitine dose by 50 percent prior to ventricular flutter
From the text: (§1) The anti-arrhythmic effect of the new compounds can also be determined in intact test animals by experimentally-induced disturbances of the heart rhythm. If rats are continually infused intravenously with aconitine, serious disturbances of the heart-beat rhythm, such as extrasystoles, ventricular tachycardia, and ventricular flutter, which disturbances eventually lead to the death of the test animals, are evident in an electrocardiogram. […] Bianchi et al., Arzneim. Forsch. 18, 845 - 850 (1968); Haas and Busch, Arzneim. Forsch. 18, 401 - 407 (1968); Haas et al., Arzneim. Forsch. 21, 1392 - 1399 (1971); Marmo, Naunyn-Schmiedeberg's Arch. Pharmak. 269, 231 - 247 (1971); Strubelt et al., Naunym-Schmiedeberg's Arch. Pharmak. 271, 346 - 360 ( 1971)].
The ED25 and ED50 are the intravenous doses, in mg/kg, which raise the administered aconitine doses, in comparison with the aconitine control, by 25 percent or 50 percent prior to the appearance of extrasystoles, ventricular tachycardia, and ventricular flutter.

[2] = test system: disturbances of the heart-beat rhythm; test: Aconitine-induced disturbances of the heart rhythm, long term effect after peroral treatment; format: in vivo; details: rats, perorally 400 mg/kg, eight hours after administration, vs untreated animals
From the text: as §1

[3] = test system: left auricle of the guinea pig; test: Functional refractory period of the left auricle, paired electrical stimulation (method of Govier); details: for percent lengthening of refractory period at 0.01 µM: Cavia porcellus, read-out: Antiarrhythmic Effect (Lengthening of the refractory period in percent); for percent lengthening of refractory period at 0.01 µM / Antiarrhythmic Effect (Lengthening of the refractory period in percent): Table 2, dose in each case 10^^-5 millimoles/liter; for Antiarrhythmic Effect (Lengthening of the Refractory Period) ED25: Table 1, effective dose which lengthens the refractory period by 25 percent
From the text: Evidence of the anti-arrhythmic effect of the new compounds is obtained in experimental animals by determination of the functional refractory period of the left auricle of the guinea pig with the aid of paired electrical stimulation employing the method of W. C. Govier, J. Pharmacol. Exp. Therap. 148, 100 - 105 (1965). In this experimental arrangement, those anti-arrhythmic agents already known for use in therapy, of differing structure and of different points of attack in the human, all distinguish themselves by lengthening the functional refractory period. The method additionally permits a determination of the effects of the substances on the contractile force of the heart muscle [cf. Reuter and Heeg, Naunyn-Schmiedeberg's Arch. Pharmak. 268, 323 - 333 (1971) and Zettler and Strubelt, Naunyn-Schmiedeberg's Arch. Pharmak. 271, 335 - 345 (1971)].
The testing of the substances in each case involves up to thirty individual experiments. For the dosage effect relationships, linear regression functions were calculated [A. Lindner, Statistische Methoden, 3rd Edition, Birkhaeuser Verlag, Basel (1969)], wherein the maximum percentage deviations from the starting value over a period of up to 60 minutes after addition of the test substance to the bath fluid were employed.
In following Table 1, column I, the optical isomers of one of the compounds of the invention and known anti-arrhythmic agents are named. Column II reports their anti-arrhythmic effect. Column III gives the inotropic effect, and column IV represents the therapeutic breadth of the compounds. The ED25 is the effective dose which lengthens the refractory period by 25 percent or reduces the contractile force by 25 percent.
The dose in each case is 10^^-5 millimoles/liter.

[4] = Inotropic effect: contractile force of the heart muscle (left auricle); parameters: species or system guinea pig; details: guinea pig, left auricle, Table 1; ratio inotropic ED25 / antiarrhythmic ED25; read-out: Therapeutic Breadth (III/II)
From the text: (§2) Evidence of the anti-arrhythmic effect of the new compounds is obtained in experimental animals by determination of the functional refractory period of the left auricle of the guinea pig with the aid of paired electrical stimulation employing the method of […]. Pharmacol. Exp. Therap. 148, 100 - 105 (1965). In this experimental arrangement, those anti-arrhythmic agents already known for use in therapy, of differing structure and of different points of attack in the human, all distinguish themselves by lengthening the functional refractory period. The method additionally permits a determination of the effects of the substances on the contractile force of the heart muscle [cf. Reuter and Heeg, Naunyn-Schmiedeberg's Arch. Pharmak. 268, 323 - 333 (1971) and Zettler and Strubelt, Naunyn-Schmiedeberg's Arch. Pharmak. 271, 335 - 345 (1971)]. The testing of the substances in each case involves up to thirty individual experiments. For the dosage effect relationships, linear regression functions were calculated [[…] Methoden, 3rd Edition, Birkhaeuser Verlag, Basel (1969)], wherein the maximum percentage deviations from the starting value over a period of up to 60 minutes after addition of the test substance to the bath fluid were employed. In following Table 1, column I, the optical isomers of one of the compounds of the invention and known anti-arrhythmic agents are named. Column II reports their anti-arrhythmic effect. Column III gives the inotropic effect, and column IV represents the therapeutic breadth of the compounds. The ED25 is the effective dose which lengthens the refractory period by 25 percent or reduces the contractile force by 25 percent.

[5] = test system: left auricle of the guinea pig; test: as above; details: Table 1; for Inotropic Effect (Decrease in Contractile Force) ED25: effective dose which reduces the contractile force by 25 percent; for Therapeutic Breadth (III/II): ratio inotropic ED25 / antiarrhythmic ED25
From the text: as §2

[6] = intravenous, dose raising administered aconitine dose by 25 percent prior to ventricular tachycardia, read-out: Ventricular Tachycardia ED25
[7] = intravenous, dose raising administered aconitine dose by 50 percent prior to ventricular tachycardia, read-out: Ventricular Tachycardia ED50

CCN(CC)CCNC(=O)c1ccc(N)cc1 [Procainamide]
ED25 ([1]; intravenous, dose raising administered aconitine dose by 25 percent prior to extrasystoles, read-out: Extrasystoles ED25): 6.8 mg/kg | ED25 [1, 6]: 6.8 mg/kg | ED50 ([1]; intravenous, dose raising administered aconitine dose by 50 percent prior to extrasystoles, read-out: Extrasystoles ED50): 52.6 mg/kg | ED50 [1, 7]: 29.1 mg/kg | Ventricular Flutter ED25 ([1]; intravenous): + | Ventricular Flutter ED50 ([1]; intravenous): + | higher dose of aconitine required before the appearance of extrasystoles [2]: 16% | higher dose of aconitine required before the appearance of ventricular flutter [2]: 29% | higher dose of aconitine required before the appearance of ventricular tachycardia [2]: 12%

C1CCN2C[C@@H]3C[C@@H](CN4CCCC[C@@H]34)[C@H]2C1 [Sparteine]
ED25 [1, 6]: 4.4 mg/kg | ED50 [1, 7]: 9.5 mg/kg | Extrasystoles ED25 ([1]; intravenous, dose raising administered aconitine dose by 25 percent prior to extrasystoles): + | Ventricular Flutter ED25 ([1]; intravenous): + | Extrasystoles ED50 ([1]; intravenous, dose raising administered aconitine dose by 50 percent prior to extrasystoles): + | Ventricular Flutter ED50 ([1]; intravenous): +

COc1ccc(CC2(C)CN(C(c3ccccc3)c3ccc(Cl)cc3)CCN2CCO)cc1OC (stereo not drawn) [1-(p-chlorophenyl-phenylmethyl)-3-methyl-3-(3,4-dimethoxybenzyl)-4-hydroxyethyl-piperazine]
percent lengthening of refractory period at 0.01 µM [3]: 55%

COc1ccc(CC2(C)CN(C(c3ccccc3)c3ccccc3)CCN2)cc1OC (stereo not drawn) [1-diphenylmethyl-3-methyl-3-(3,4-dimethoxybenzyl)-piperazine] [listing 1 of 2 here]
effectiveness (in words) [3]: outstanding

CCCN1CCN(C(c2ccccc2)c2ccccc2)CC1(C)Cc1ccc(OC)c(OC)c1 (stereo not drawn) [(D)-1-diphenylmethyl-3-methyl-3-(3,4-dimethoxybenzyl)-4-n-propyl-piperazine]
percent lengthening of refractory period at 0.01 µM [3]: 51%

CCCCN1CCN(C(c2ccccc2)c2ccccc2)CC1(C)Cc1ccc(OC)c(OC)c1 (stereo not drawn) [(D)-1-diphenylmethyl-3-methyl-3-(3,4-dimethoxybenzyl)-4-n-butyl-piperazine]
percent lengthening of refractory period at 0.01 µM [3]: 31%

CC[C@H]1[C@@H]2C[C@H]3[C@@H]4N(C)c5ccccc5[C@]45C[C@@H]([C@@H]2[C@H]5O)N3[C@@H]1O [Ajmaline, reference compound]
percent lengthening of refractory period at 0.01 µM [3]: 14%

COc1ccc(CC2(C)CN(C(c3ccccc3)c3ccccc3)CCN2C)cc1OC (stereo not drawn) [(D)-1-diphenylmethyl-3-methyl-3-(3,4-dimethoxybenzyl)-4-methyl-piperazine]
ED25 ([1]; iv, read-out: Extrasystoles ED25): 0.94 mg/kg | ED50 ([1]; iv, read-out: Extrasystoles ED50): 1.21 mg/kg | ED25 ([1]; iv, read-out: Ventricular Flutter ED25): 0.84 mg/kg | ED50 ([1]; iv, read-out: Ventricular Flutter ED50): 1.23 mg/kg | ED25 ([1]; iv, read-out: Ventricular Tachycardia ED25): 0.94 mg/kg | ED50 ([1]; iv, read-out: Ventricular Tachycardia ED50): 1.26 mg/kg | selectivity ratio [4]: 1.5

COc1ccc(CC2(C)CN(C(c3ccccc3)c3ccccc3)CCN2)cc1OC (stereo not drawn) [1-diphenylmethyl-3-methyl-3-(3,4-dimethoxybenzyl)-piperazine] [listing 2 of 2 here]
percent lengthening of refractory period at 0.01 µM [3]: 46%

COc1ccc(CC2(C)CN(C(c3ccccc3)c3ccccc3)CCN2C)cc1OC (stereo not drawn) [(L)-1-diphenylmethyl-3-methyl-3-(3,4-dimethoxybenzyl)-4-meth] [(L)-1-diphenylmethyl-3-methyl-3-(3,4-dimethoxybenzyl)-4-methyl-piperazine]
Antiarrhythmic Effect (Lengthening of the Refractory Period) ED25 [3]: 0.0056 | Antiarrhythmic Effect (Lengthening of the refractory period in percent) [3]: 73% | Inotropic Effect (Decrease in Contractile Force) ED25 [5]: 0.0052 | Therapeutic Breadth (III/II) [5]: 0.9

CCC[N+]12[C@H](O)[C@@H](CC)[C@@H]3C[C@H]1[C@@H]1N(C)c4ccccc4[C@]14C[C@H]2[C@@H]3[C@H]4O [N-n-propylajmaline, reference compound]
Antiarrhythmic Effect (Lengthening of the Refractory Period) ED25 [3]: 0.0037 | Inotropic Effect (Decrease in Contractile Force) ED25 [5]: 0.0015 | Therapeutic Breadth (III/II) [5]: 0.4

c1ccc(CN(CC2=NCCN2)c2ccccc2)cc1 [Antazoline, reference compound]
Antiarrhythmic Effect (Lengthening of the Refractory Period) ED25 [3]: 0.164 | selectivity ratio [4]: 0.6 | Inotropic Effect (Decrease in Contractile Force) ED25 [5]: 0.094

COc1ccc(CC2(C)CN(C(c3ccccc3)c3ccccc3)CCN2)cc1OC (stereo not drawn) [(D)-1-diphenylmethyl-3-methyl-3-(3,4-dimethoxybenzyl)-pipera] [(D)-1-diphenylmethyl-3-methyl-3-(3,4-dimethoxybenzyl)-piperazine]
Antiarrhythmic Effect (Lengthening of the refractory period in percent) [3]: 31%

CCN1CCN(C(c2ccccc2)c2ccccc2)CC1(C)Cc1ccc(OC)c(OC)c1 (stereo not drawn) [(L)-1-diphenylmethyl-3-methyl-3-(3,4-dimethoxybenzyl)-4-ethyl-piperazine]
percent lengthening of refractory period at 0.01 µM [3]: 48%

CCN1CCN(C(c2ccccc2)c2ccccc2)CC1(C)Cc1ccc(OC)c(OC)c1 (stereo not drawn) [(D)-1-diphenylmethyl-3-methyl-3-(3,4-dimethoxybenzyl)-4-ethy] [(D)-1-diphenylmethyl-3-methyl-3-(3,4-dimethoxybenzyl)-4-ethyl-piperazine]
Antiarrhythmic Effect (Lengthening of the refractory period in percent) [3]: 50%

COc1ccc(CC2(C)CN(C(c3ccccc3)c3ccccc3)CCN2C)cc1OC (stereo not drawn) [1-diphenylmethyl-3-methyl-3-(3,4-dimethoxybenzyl)-4-methyl-p] [1-diphenylmethyl-3-methyl-3-(3,4-dimethoxybenzyl)-4-methyl-piperazine]
Antiarrhythmic Effect (Lengthening of the refractory period in percent) [3]: 64%

COc1ccc(CC2(C)CN(C(c3ccccc3)c3ccc(Cl)cc3)CCN2)cc1OC (stereo not drawn) [1-(p-chlorophenyl-phenylmethyl)-3-methyl-3-(3,4-dimethoxybenzyl)-piperazine]
percent lengthening of refractory period at 0.01 µM [3]: 28%

COc1ccc(CC2(C)CN(C(c3ccccc3)c3ccccc3)CCN2CCO)cc1OC (stereo not drawn) [(D)-1-diphenylmethyl-3-methyl-3-(3,4-dimethoxybenzyl)-4-hydr] [(D)-1-diphenylmethyl-3-methyl-3-(3,4-dimethoxybenzyl)-4-hydroxyethyl-piperazine]
Antiarrhythmic Effect (Lengthening of the refractory period in percent) [3]: 72%

COc1ccc(CC2(C)CN(C(c3ccccc3)c3ccccc3)CCN2C)cc1OC (stereo not drawn) [(D)-1-diphenylmethyl-3-methyl-3-(3,4-dimethoxybenzyl)-4-meth] [(D)-1-diphenylmethyl-3-methyl-3-(3,4-dimethoxybenzyl)-4-methyl-piperazine]
Antiarrhythmic Effect (Lengthening of the Refractory Period) ED25 [3]: 0.0063 | Antiarrhythmic Effect (Lengthening of the refractory period in percent) [3]: 50% | Inotropic Effect (Decrease in Contractile Force) ED25 [5]: 0.0093 | higher dose of aconitine required before the appearance of extrasystoles [2]: 68% | higher dose of aconitine required before the appearance of ventricular flutter [2]: 70% | higher dose of aconitine required before the appearance of ventricular tachycardia [2]: 75%

COc1ccc(CC2(C)CN(C(c3ccccc3)c3ccccc3)CCN2CCO)cc1OC (stereo not drawn) [1-diphenylmethyl-3-methyl-3-(3,4-dimethoxybenzyl)-4-hydroxyethylpiperazine]
percent lengthening of refractory period at 0.01 µM [3]: 55%
